Measurements reported in paper PMC8000395, “Effective Small Molecule Antibacterials from a Novel Anti-Protein Secretion Screen” (Microorganisms, 2021).
Like-named read-outs stand apart in the source and are kept apart here.

Legend:
[1] = system: Streptococcus pneumoniae; test: Antimicrobial activity test (growth, OD600); assay type: cell-based; settings: read-out: Bacterial Viability (IC50)
[2] = system: Pseudomonas aeruginosa 3/88; test: Antimicrobial activity test (growth, OD600); assay type: cell-based; settings: read-out: Bacterial Viability (IC50)
[3] = system: Staphylococcus aureus ATC6538P; test: Antimicrobial activity test (growth, OD600); assay type: cell-based; settings: Staphylococcus aureus ATC6538P; read-out: Bacterial Viability (IC50)
[4] = system: E. coli MC4100; test: Antimicrobial activity test (growth, OD600); assay type: cell-based; settings: Escherichia coli, MC4100; 20 h, 37 °C, OD600; read-out: Bacterial Viability IC50, E. coli MC4100
[5] = system: E. coli BW25113; test: Antimicrobial activity test (growth, OD600); assay type: cell-based; settings: Escherichia coli, 20 h, 37 °C, read-out: Bacterial Viability IC50, E. coli BW25113
[6] = system: Salmonella typhimurium; test: Antimicrobial activity test (growth, OD600); assay type: cell-based; settings: Salmonella enterica, read-out: Bacterial Viability (IC50)
[7] = system: Enterobacter cloacae; test: Antimicrobial activity test (growth, OD600); assay type: cell-based; settings: read-out: Bacterial Viability (IC50)
[8] = system: HEK293T cells; settings: 24 h; for Toxicity of Mammalian Cells (HEK293T) LD50: human
Protocol: Hek293T cells were harvested and diluted obtaining a cell suspension with a concentration of 200,000 cells/mL in complete growth medium (DMEM, 4.5 g/L d-glucose, pyruvate 1 mM, 0.075% bicarbonate and 10% Fetal Bovine serum). Of this cell suspension, 50 µL (10,000/well) was seeded in a 384 well culture plate (white polystyrene, tissue culture treated) and incubated at 37 °C-5% CO2 for 4 h in a moisturized incubator, which enables the cells to adhere. After the incubation, small chemical compounds were diluted in medium and 10 µL of a compound solution was added onto the cells, ending up with the required compound concentration. The cells were incubated for 24 h at 37 °C-5% CO2 in a moisturized incubator where after × µL medium was removed to equalize the liquid levels within one plate ending up with ±25 µL/well. The amount of remaining cells/well was determined with ATPlite^TM 1step (Perkin Elmer) Adenosine TriPhosphate (ATP) monitoring system, which is based on firefly luciferase.
The cytotoxicity was calculated by subtracting RLU (relative light units) obtained from the cells incubated with a compound from the RLUs obtained from cells in the presence of the vehicle.
The cytotoxic effect of a test compound was determined as:
Percent cell death = [1−((RLU determined for sample with test compound present—1) divided by (RLU determined in the presence of vehicle—1))] * 100.

[9] = system: Serratia marcescens; test: Antimicrobial activity test (growth, OD600); assay type: cell-based; settings: read-out: Bacterial Viability (IC50)
[10] = system: Haemophilus influenzae; test: Antimicrobial activity test (growth, OD600); assay type: cell-based; settings: read-out: Bacterial Viability (IC50)
[11] = system: PhoA secretion in E. coli strain BL21 (pLysS); test: Luminescence-based HTS assay of in vivo PhoA secretion; assay type: cell-based; settings: Escherichia coli, BL21, luminescence-based HTS assay, E. coli BL21; read-out: Inhibition of PhoA Secretion IC50, HTS
[12] = system: Proteus vulgaris; test: Antimicrobial activity test (growth, OD600); assay type: cell-based; settings: read-out: Bacterial Viability (IC50)
[13] = system: E. coli BL21; test: Antimicrobial activity test (growth, OD600); assay type: cell-based; settings: Escherichia coli, BL21, BL21; 20 h, 37 °C, OD600; read-out: Bacterial Viability IC50, E. coli BL21
[14] = system: Gram-positive bacteria; test: Antimicrobial activity test, summary over Gram-positive bacteria; assay type: cell-based
[15] = system: Mycobacterium abscessus ATCC19977; test: Antimicrobial activity test (growth, OD600); assay type: cell-based; settings: Mycobacteroides abscessus, read-out: Bacterial Viability (IC50)
[16] = system: Providencia stuartii; test: Antimicrobial activity test (growth, OD600); assay type: cell-based; settings: read-out: Bacterial Viability (IC50)
[17] = system: PhoA secretion in E. coli MC4100; test: microbe, parasite or virus in culture; assay type: cell-based; settings: Escherichia coli; PNPP colorimetric lab-scale assay; read-out: Inhibition of PhoA Secretion IC50, Lab-Scale
[18] = system: Klebsiella pneumoniae ATCC 27799; test: Antimicrobial activity test (growth, OD600); assay type: cell-based; settings: ATCC27799, read-out: Bacterial Viability (IC50)
[19] = system: E. coli BW25113ΔtolC; test: Antimicrobial activity test (growth, OD600); settings: for Higher sensitivity of ΔtolC and imp-2413+ derivatives compared to BW25113: viability, Figure 5A
[20] = system: PhoA secretion in E. coli BW25113; test: Lab-scale p-nitrophenyl PhoA secretion assay, BW25113; assay type: cell-based; settings: Escherichia coli, read-out: PhoA secretion in vivo IC50, E. coli BW25113
[21] = system: Morganella morganii; test: Antimicrobial activity test (growth, OD600); assay type: cell-based; settings: read-out: Bacterial Viability (IC50)
[22] = system: Enterococcus faecium ATCC 804B; test: Antimicrobial activity test (growth, OD600); assay type: cell-based; settings: ATCC804B, read-out: Bacterial Viability (IC50)
[23] = system: Campylobacter jejuni; test: Antimicrobial activity test (growth, OD600); assay type: cell-based; settings: read-out: Bacterial Viability (IC50)
[24] = system: B. subtilis ATCC6633; test: Antimicrobial activity test (growth, OD600); assay type: cell-based; settings: Bacillus subtilis, ATCC6633; 20 h, 37 °C, OD600; read-out: Bacterial Viability IC50, B. subtilis ATCC6633
[25] = B. subtilis, S. aureus, E. faecalis, S. pneumoniae, M. abscessus, read-out: Viability of Gram-positive bacteria IC50 (range over species)
[26] = for 80% of strains, selection threshold, Figure 1B, read-out: Bactericidal activity Gram+ IC50

`O=C(/C=C/c1csnn1)c1ccccc1Cl` [HSI#01] gave an IC50 [1] of 77.8 µM, an IC50 [2] of over 100 µM and an IC50 [3] of 14.8 µM. It also gave an IC50 [4] of over 100 µM, an IC50 [5] of over 100 µM and an IC50 [6] of over 100 µM. For the same compound, the IC50 [7] was over 100 µM, the “Human cell toxicity LD50” value [8] was over 15 µM and the “Toxicity of Mammalian Cells (HEK293T) LD50” value (from here on “Toxicity of Mammalian Cells”) [8] was 6.7 µM. It also gave an IC50 [9] of over 100 µM, an IC50 [10] of over 100 µM and an IC50 [11] of 11.9 µM. For the same compound, the IC50 [12] was 80 to 100 µM, the IC50 [13] was over 100 µM and the IC50 [14, 25] was 7 to 38 µM. It also gave an IC50 [14, 26] of under 28 µM, an IC50 [15] of 33.8 µM and an IC50 [16] of over 100 µM. For the same compound, the IC50 [17] was 12.5 µM, the IC50 [18] was 80 to 100 µM and the IC50 ([19]; Escherichia coli, read-out: Viability IC50, BW25113ΔtolC, E. coli strain missing TolC) was under 14 µM. The “Higher sensitivity of ΔtolC and imp-2413+ derivatives compared to BW25113” value [19] was 2 to 40 times, the IC50 [20] was 8.13 µM and the IC50 [21] was over 100 µM. The IC50 [22] was 34.5 µM, the IC50 [23] was over 100 µM and the IC50 [24] was 37.6 µM.
In the case of `O=C(/C=C/c1csnn1)c1cc(Cl)ccc1Cl` [HSI#05], the IC50 [1] is reported as 29.7 µM, the IC50 [2] is reported as over 100 µM and the IC50 [3] is reported as 4.1 µM. The IC50 [4] was over 100 µM, the IC50 [5] was over 100 µM and the IC50 [6] was over 100 µM. For the same compound, the IC50 [7] was over 100 µM, the “Human cell toxicity LD50” value [8] was over 15 µM and the “Toxicity of Mammalian Cells” value [8] was 6.7 µM. The IC50 [9] was over 100 µM, the IC50 [10] was over 100 µM and the IC50 [11] was 35.2 µM. It also gave an IC50 [12] of over 100 µM, an IC50 [13] of over 100 µM and an IC50 [14, 25] of 7 to 38 µM. It also gave an IC50 [14, 26] of under 28 µM, an IC50 [15] of 17.9 µM and an IC50 [16] of over 100 µM. For the same compound, the IC50 [17] was 7 µM, the IC50 [18] was over 100 µM and the IC50 ([19]; read-out: Viability IC50, BW25113ΔtolC, E. coli strain missing TolC, listed as HSI#5) was under 14 µM. The “Higher sensitivity of ΔtolC and imp-2413+ derivatives compared to BW25113” value [19] was 2 to 40 times, the IC50 [20] was 3.2 µM and the IC50 [21] was over 100 µM. It also gave an IC50 [22] of 9.4 µM, an IC50 [23] of over 100 µM and an IC50 [24] of 27.8 µM.
For `O=C(/C=C/c1csnn1)c1cccc2ccccc12` [HSI#10], the IC50 [1] was 60.9 µM, the IC50 [2] was over 100 µM and the IC50 [3] was 7.8 µM. For the same compound, the IC50 [4] was over 100 µM, the IC50 [5] was over 100 µM and the IC50 [6] was over 100 µM. For the same compound, the IC50 [7] was over 100 µM, the “Human cell toxicity LD50” value [8] was over 15 µM and the “Toxicity of Mammalian Cells” value [8] was 6.7 µM. For the same compound, the IC50 [9] was over 100 µM, the IC50 [10] was over 100 µM and the IC50 [11] was 20 µM. The IC50 [12] was over 100 µM, the IC50 [13] was over 100 µM and the IC50 [14, 25] was 7 to 38 µM. The IC50 [14, 26] was under 28 µM, the IC50 [15] was 21.8 µM and the IC50 [16] was over 100 µM. The IC50 [17] was 19.6 µM, the IC50 [18] was over 100 µM and the “Higher sensitivity of ΔtolC and imp-2413+ derivatives compared to BW25113” value [19] was 2 to 40 times. For the same compound, the IC50 [20] was 24.9 µM, the IC50 [21] was over 100 µM and the IC50 [22] was 23.5 µM. The IC50 [23] was over 100 µM and the IC50 [24] was 26 µM.
